Our source for the Tm values is ChEMBL document CHEMBL4627250, “Suitable fusion of N-terminal heptad repeats to achieve covalently stabilized potent N-peptide inhibitors of HIV-1 infection” (Bioorg Med Chem, 2020).

This series is described as follows: Thermal stability of compound assessed as melting temperature at 10 uM. Format: physicochemical.
For “H-RIQQIEQKIHHIEQRIQQIEQRIEAQQHLLQLTVWGIKQLQARIL-OH”, the Tm is 74 °C.

Consider “H-RIQQIEQKIHHIEQRIQQIEQLLQLTVWGIKQLQARIL-OH”, for which the Tm was determined as 72 °C.

As to “H-RIQQIEQKIHHIEQRIQQIEQRISGIVQQQNNLLRIEAQQHLLQLTVWGIKQLQARIL-OH”, the Tm was 82 °C.
